Measurements from patent publication US6641840B2, “Sustained release formulations for growth hormone secretagogues” (Pfizer Inc., priority 2000, dated 2003).
Read-outs that look alike come from different tables or passages of the source.

Legend:
IGF-I = assay: Simulated sustained release study (bolus vs divided oral solution): serum IGF-I; format: in vivo, human; settings: simulated sustained release dosing compared to bolus
Protocol: This dosing regimen simulates active compound delivery by a sustained release dosage form. […] Serum concentrations of growth hormone were monitored just prior to administration of the first dose and every 20 minutes thereafter for 24 hours. Serum […] growth factor-I (IGF-I) concentrations were measured at 0, 12, and 24 hours post-first dose.
The order of treatment was defined by a randomization schedule. Following initial administration, subjects were readmitted to the clinical research facility approximately 14 days later. During the second evaluation, the subject received the treatment not used during the previous session.
IGF-I serum concentrations were determined following administration of the bolus or divided doses. […]
IGF-I quantitation of the human serum samples was conducted using the “DSL-5600A Active™ IGF-I Coated-Tube IRMA (immunoradiometric assay) by Extraction” Kit (Diagnostic Systems Laboratories Inc., Webster, Tex.). […] Lyophilized calibration and validation samples were prepared by the addition of 1 mL of water to the ready-to-use samples. […] This neutralized human serum extract was ready for use in the actual IRMA after having vortexed it briefly. […] The remaining [^125I]radioactivity of all tubes was determined by counting for five minutes using a Canberra-Packard Cobra II™ 5002 ã-counter (Canberra-Packard, Schwadorf, Austria).

[1] = One compartment pharmacokinetic model fitted to observed human plasma concentrations
From the text: A one compartment pharmacokinetic model was constructed using the following equations (I Think, Stella, HPS, Hanover, N.H.): […]
where ba is bioavailability (1.0), Vdist_liter is volume of distribution in units of liters (0.75), ka_hr1 is absorption rate constant in units of reciprocal hr (1.3), and thalf_hr is the plasma concentration vs. time elimination half-life in units of hr (2.5).
These parameters were then fixed to the values noted above for all subsequent simulations.

[2] = Excipient selection based on active compound solubility screening; format: physicochemical; settings: for solubility at 5 min: filtrate of excipient solution in water, 37 °C, thermodynamic from solid
Protocol: Such excipients are useful in making osmotic sustained release tablets. […] The active compound solubility measured in this manner exceeded 150 mgA/ml (mgA is the milligrams of active compound).
The excipients were screened by preparing a saturated solution (unless otherwise noted) of the candidate excipient in water at 37° C. for 2 hrs, and filtering the undissolved portion. […] The solution was maintained at 37° C. for 5 minutes prior to making the visual observation for any undissolved particulates.

[3] = fitted one compartment model, humans

With `CN1N=C2CCN(C(=O)[C@@H](COCc3ccccc3)NC(=O)C(C)(C)N)C[C@@]2(Cc2ccccc2)C1=O.O=C(O)C(O)C(O)C(=O)O` [Compound A] the “IGF-I serum concentration change from baseline at 24 hours” value (IGF-I) was “increased”, the “absorption rate constant (ka_hr1)” value [1, 3] was 1.3 reciprocal hr and the “plasma concentration vs. time elimination half-life (thalf_hr)” value [1, 3] was 2.5 h. The “volume of distribution (Vdist_liter)” value [1, 3] was 0.75 L, the “bioavailability (ba)” value ([1]; fitted to observed plasma concentrations after oral 10, 3 and 0.3 mg doses to humans) was 1.0 and the “visual observation on addition of Compound A” value (from here on “visual observation on addition”) ([2]; L-lysine solution 50 mg/ml, 37° C.) was “cloudy gel”. The solubility at 5 min ([2]; aqueous buffer, L-lysine solution 50 mg/ml (below saturation), 37° C., read-out: COMPOUND A Solubility) was under 50 mg/mL, the solubility at 5 min ([2]; aqueous buffer, saturated L-arginine solution, approx. 150 mg/ml, 37° C., read-out: COMPOUND A Solubility) was under 50 mg/mL and the solubility at 5 min ([2]; aqueous buffer, saturated L-aspartic acid solution, approx. 7 mg/ml, 37° C., read-out: COMPOUND A Solubility) was over 150 mg/mL. It also gave a solubility at 5 min ([2]; aqueous buffer, saturated ascorbic acid solution, approx. 400 mg/ml, 37° C., read-out: COMPOUND A Solubility) of over 150 mg/mL, a solubility at 5 min ([2]; aqueous buffer, saturated citric acid solution, approx. 600 mg/ml, 37° C., read-out: COMPOUND A Solubility) of over 150 mg/mL and a solubility at 5 min ([2]; aqueous buffer, saturated fumaric acid solution, approx. 10 mg/ml, 37° C., read-out: COMPOUND A Solubility) of over 150 mg/mL. For the same molecule, the solubility at 5 min ([2]; aqueous buffer, saturated potassium phosphate monobasic solution, approx. 400 mg/ml, 37° C., read-out: COMPOUND A Solubility) was under 50 mg/mL, the solubility at 5 min ([2]; aqueous buffer, saturated sodium bitartrate solution, approx. 110 mg/ml, 37° C., read-out: COMPOUND A Solubility) was over 150 mg/mL and the solubility at 5 min ([2]; aqueous buffer, saturated sodium citrate solution, approx. 520 mg/ml, 37° C., read-out: COMPOUND A Solubility) was under 50 mg/mL. It also gave a solubility at 5 min ([2]; aqueous buffer, saturated sodium phosphate monobasic solution, approx. 1000 mg/ml, 37° C., read-out: COMPOUND A Solubility) of under 50 mg/mL, a solubility at 5 min ([2]; aqueous buffer, saturated sodium phosphate tribasic solution, approx. 290 mg/ml, 37° C., read-out: COMPOUND A Solubility) of under 50 mg/mL and a solubility at 5 min ([2]; aqueous buffer, saturated succinic acid solution, approx. 80 mg/ml, 37° C., read-out: COMPOUND A Solubility) of over 150 mg/mL. It also gave a solubility at 5 min ([2]; aqueous buffer, sodium bitartrate buffer, read-out: solubility of the active compound) of over 150 mg/mL, a solubility at 5 min ([2]; aqueous buffer, tartaric acid solution 50 mg/ml (below saturation), 37° C., read-out: COMPOUND A Solubility) of over 150 mg/mL and a solubility at 5 min ([2]; aqueous with cosolvent or surfactant or cyclodextrin, cyclodextrin, sulfobutylether solution, approx. 1000 mg/ml, 37° C., read-out: COMPOUND A Solubility) of 100 to 150 mg/mL. It also gave a solubility at 5 min ([2]; aqueous with cosolvent or surfactant or cyclodextrin, polyethylene glycol (Carbowax 3350) 50 mg/ml, 37° C., read-out: COMPOUND A Solubility) of over 150 mg/mL, a solubility at 5 min ([2]; aqueous with cosolvent or surfactant or cyclodextrin, sodium lauryl sulfate solution, approx. 50 mg/ml, 37° C., read-out: COMPOUND A Solubility) of 50 to 100 mg/mL and a solubility at 5 min ([2]; aqueous with cosolvent or surfactant or cyclodextrin, sulfobutylether cyclodextrin, read-out: active compound substance solubility) of 100 to 150 mg/mL. The solubility at 5 min ([2]; saline or isotonic, saturated potassium chloride solution, approx. 360 mg/ml, 37° C., read-out: COMPOUND A Solubility) was under 50 mg/mL, the solubility at 5 min ([2]; saline or isotonic, saturated sodium chloride solution, approx. 360 mg/ml, 37° C., read-out: COMPOUND A Solubility) was under 50 mg/mL and the solubility at 5 min ([2]; visual screening, 37° C., read-out: active compound solubility measured in this manner) was over 150 mg/mL. The solubility at 5 min ([2]; water, calcium stearate < 1 mg/ml, prepared at 2 mg/mL, 37° C., read-out: COMPOUND A Solubility) was over 150 mg/mL, the solubility at 5 min ([2]; water, magnesium stearate < 1 mg/ml, 37° C., read-out: COMPOUND A Solubility) was over 150 mg/mL and the solubility at 5 min ([2]; water, microcrystalline cellulose (Avicel PH102) < 1 mg/ml, prepared at 80 mg/ml, 37° C., read-out: COMPOUND A Solubility) was over 150 mg/mL. For the same molecule, the solubility at 5 min ([2]; water, microcrystalline cellulose, silicified (Prosolv SMCC50) < 1 mg/ml, prepared at 80 mg/ml, 37° C., read-out: COMPOUND A Solubility) was over 150 mg/mL, the “visual observation on addition” value ([2]; saturated potassium chloride solution, 37° C.) was “cloudy gel” and the “visual observation on addition” value ([2]; saturated sodium chloride solution, 37° C.) was “cloudy gel”. For the same molecule, the “visual observation on addition” value ([2]; saturated sodium citrate solution, 37° C.) was “cloudy gel”, the “visual observation on addition” value ([2]; saturated sodium phosphate monobasic solution, 37° C.) was “cloudy gel” and the “visual observation on addition” value ([2]; saturated sodium phosphate tribasic solution, 37° C.) was “cloudy gel”. The “visual observation on addition” value ([2]; sodium lauryl sulfate solution 50 mg/ml, 37° C.) was “clear gel”.
